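A five-concentration, 48-hour dose response in 96-well plates underlies each endpoint, interpolated linearly between surrounding concentrations. The concentration for full growth arrest is given as TGI.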
How the values were obtained:
Test in all cases: NCI anticancer screen, dose series, 48 h
OVCAR-3 ovarian = system: OVCAR-3 ovarian
IGROV1 ovarian = system: IGROV1 ovarian
HCC-2998 colon = system: HCC-2998 colon
HT29 colon = system: HT29 colon
M14 melanoma = system: M14 melanoma
OVCAR-8 ovarian = system: OVCAR-8 ovarian
TK-10 renal = system: TK-10 renal
K-562 leukemia = system: K-562 leukemia
UACC-257 melanoma = system: UACC-257 melanoma
SN12C renal = system: SN12C renal
NCI-H23 lung = system: NCI-H23 lung
CCRF-CEM leukemia = system: CCRF-CEM leukemia
CAKI-1 renal = system: CAKI-1 renal
MCF7 breast = system: MCF7 breast
HCT-15 colon = system: HCT-15 colon
SNB-19 CNS = system: SNB-19 CNS
MALME-3M melanoma = system: MALME-3M melanoma

Compound | TGI (OVCAR-3 ovarian) | TGI (IGROV1 ovarian) | TGI (HCC-2998 colon) | TGI (HT29 colon) | TGI (M14 melanoma) | TGI (OVCAR-8 ovarian) | TGI (TK-10 renal) | TGI (K-562 leukemia) | TGI (UACC-257 melanoma) | TGI (SN12C renal) | TGI (NCI-H23 lung) | TGI (CCRF-CEM leukemia) | TGI (CAKI-1 renal) | TGI (MCF7 breast) | TGI (HCT-15 colon) | TGI (SNB-19 CNS) | TGI (MALME-3M melanoma)
Cc1c[nH]c(C(=O)O)c1-c1cccn1-c1ccc(Cl)cc1[N+](=O)[O-] | > 100 µM | > 100 µM | > 100 µM | > 100 µM | > 100 µM | > 100 µM | > 100 µM | > 100 µM | > 100 µM | > 100 µM | > 100 µM | > 100 µM | > 100 µM | > 100 µM | > 100 µM | – | –
O=c1[nH]nc(-c2ccccc2)n1/N=C/c1ccco1 | > 100 µM | > 100 µM | – | > 100 µM | > 100 µM | > 100 µM | > 100 µM | – | > 100 µM | > 100 µM | > 100 µM | > 100 µM | > 100 µM | > 100 µM | > 100 µM | > 100 µM | > 100 µM
c1ccc2c(c1)nc1n2CSCC1 | > 100 µM | > 100 µM | > 100 µM | > 100 µM | > 100 µM | > 100 µM | > 100 µM | > 100 µM | > 100 µM | > 100 µM | > 100 µM | > 100 µM | > 100 µM | > 100 µM | > 100 µM | > 100 µM | –
O=c1[nH]c2cc([N+](=O)[O-])ccc2nc1/C(=N/Nc1ccccc1)C(O)c1ccco1 (stereo not given) | – | > 100 µM | > 100 µM | > 100 µM | > 100 µM | > 100 µM | – | > 100 µM | > 100 µM | > 100 µM | – | > 100 µM | > 100 µM | – | > 100 µM | > 100 µM | > 100 µM
CN(C)C1(N(C)C)Oc2c(c(=O)n(C)c(=O)n2C)C(c2ccc(C(F)(F)F)cc2)C1(F)F (stereo not given) | > 100 µM | – | > 100 µM | – | > 100 µM | – | > 100 µM | > 100 µM | > 100 µM | – | > 100 µM | > 100 µM | > 100 µM | > 100 µM | > 100 µM | > 100 µM | –
O=C1c2c(Br)sc(Br)c2[C@@H](Cl)[C@H]1Cl | 30 µM | 42 µM | – | > 100 µM | 39.1 µM | 42.5 µM | 87.3 µM | > 100 µM | 30.9 µM | 36.7 µM | 94 µM | 35.9 µM | 38.8 µM | 53.5 µM | 71.3 µM | 38.5 µM | 82.7 µM
Cc1csc(NNC(N)=O)n1 | > 100 µM | > 100 µM | > 100 µM | > 100 µM | > 100 µM | > 100 µM | > 100 µM | – | > 100 µM | > 100 µM | > 100 µM | > 100 µM | > 100 µM | > 100 µM | > 100 µM | > 100 µM | –
O=C1CCC(=O)N1CNc1ccc2c(c1)S(=O)(=O)c1ccccc1O2 | > 100 µM | > 100 µM | – | > 100 µM | > 100 µM | > 100 µM | > 100 µM | > 100 µM | > 100 µM | > 100 µM | > 100 µM | > 100 µM | > 100 µM | > 100 µM | > 100 µM | > 100 µM | > 100 µM
O=C(c1ccco1)N(C(=S)N1CCN(c2ccccc2)CC1)C1CCCCC1 | > 100 µM | > 100 µM | – | > 100 µM | > 100 µM | > 100 µM | > 100 µM | > 100 µM | > 100 µM | > 100 µM | > 100 µM | > 100 µM | > 100 µM | – | > 100 µM | > 100 µM | > 100 µM
COc1cc2c(oc(=O)c3c4occc4cc(OC)c23)c2cccc(OCc3ccccc3)c12 | > 100 µM | > 100 µM | > 100 µM | > 100 µM | > 100 µM | > 100 µM | > 100 µM | > 100 µM | > 100 µM | > 100 µM | > 100 µM | > 100 µM | > 100 µM | – | > 100 µM | > 100 µM | > 100 µM
Cc1cc(C)c2c(n1)S(=O)(=O)N(CCCN1CCN(c3cccc(Cl)c3)CC1)/C(=C(\O)c1ccccc1)C2=O | > 100 µM | > 100 µM | – | > 100 µM | > 100 µM | > 100 µM | 78.5 µM | > 100 µM | 55.4 µM | 93.4 µM | 89.1 µM | > 100 µM | 62.2 µM | > 100 µM | > 100 µM | > 100 µM | > 100 µM
N#CCCN(CCC#N)c1ccc(C(N=Nc2ccc(Cl)cc2)=Nc2ccccc2)cc1 | 22.1 µM | 24.6 µM | 20.6 µM | 34.3 µM | 26.9 µM | 28.7 µM | 29.1 µM | > 100 µM | 20.8 µM | 33.5 µM | 25.7 µM | – | 26.1 µM | 28.2 µM | 21.2 µM | 25 µM | –
O=C(O)Cc1ccc(Nc2nc3ccccc3nc2C(=O)O)cc1 | > 100 µM | > 100 µM | – | > 100 µM | > 100 µM | > 100 µM | > 100 µM | – | > 100 µM | > 100 µM | > 100 µM | > 100 µM | > 100 µM | > 100 µM | > 100 µM | > 100 µM | > 100 µM
S=C=Nc1ccc(CSc2nc3ccccc3[nH]2)cc1 | – | 33.7 µM | 32.1 µM | 32.6 µM | – | 32.3 µM | 38.9 µM | > 100 µM | 34.1 µM | 31.3 µM | 32.7 µM | 80.4 µM | 33.5 µM | – | 28.4 µM | 86.1 µM | 32 µM
CSc1nc(Nc2ccccc2Cl)c2c(N)nn(C)c2n1 | > 100 µM | > 100 µM | > 100 µM | > 100 µM | > 100 µM | > 100 µM | > 100 µM | > 100 µM | > 100 µM | > 100 µM | > 100 µM | > 100 µM | > 100 µM | – | > 100 µM | > 100 µM | > 100 µM

Reference: PubChem BioAssay (NCI)
